Measurements as given in patent publication US8741806B2, “Herbicides” (Syngenta Limited, priority 2009, dated 2014).

Assays:
Format in all cases: in vivo
Lolium perenne (LOLPE) [1] = experiment: Example B pre-emergence herbicidal activity, glasshouse pot test; details: 312 h, rate 250 g/ha, evaluated after 13 days, scale 0-100, read-out: Pre-emergence activity LOLPE (100=total damage to plant; 0=no damage to plant)
Method: (§1) Seeds of a variety of test species were sown in standard soil in pots. After cultivation for one day (pre-emergence) or after 8 days cultivation (post-emergence) under controlled conditions in a glasshouse (at 24/16° C., day/night; 14 hours light; 65% humidity), the plants were sprayed with an aqueous spray solution derived from the formulation of the technical active ingredient of formula I in acetone/water (50:50) solution containing 0.5% Tween 20 (polyoxyethelyene sorbitan monolaurate, CAS RN 9005-64-5). The test plants were then grown in a glasshouse under controlled conditions in a glasshouse (at 24/16° C., day/night; 14 hours light; 65% humidity) and watered twice daily. After 13 days for pre and post-emergence, the test was evaluated (100=total damage to plant; 0=no damage to plant). Setaria faberi (SETFA), Lolium perenne (LOLPE), Alopecurus myosuroides (ALOMY), Echinochloa crus-galli (ECHCG), and Avena fatua (AVEFA). Pre-Emergence Activity

[2] = tested on: Echinochloa crus-galli (ECHCG); experiment: as above; details: 312 h, rate 250 g/ha, evaluated after 13 days, scale 0-100, read-out: Pre-emergence activity ECHCG (100=total damage to plant; 0=no damage to plant)
Method: as §1

[3] = tested on: Alopecurus myosuroides (ALOMY); experiment: as above; details: 312 h, rate 250 g/ha, evaluated after 13 days, scale 0-100, read-out: Pre-emergence activity ALOMY (100=total damage to plant; 0=no damage to plant)
Method: as §1

Avena fatua (AVEFA) [4] = experiment: as above; details: 312 h, rate 250 g/ha, evaluated after 13 days, scale 0-100, read-out: Pre-emergence activity AVEFA (100=total damage to plant; 0=no damage to plant)
Method: as §1

Lolium perenne (LOLPE) [5] = experiment: Example B post-emergence herbicidal activity, glasshouse pot test; details: 312 h, rate 250 g/ha, evaluated after 13 days, scale 0-100, read-out: Post-emergence activity LOLPE (100=total damage to plant; 0=no damage to plant)
Method: as §1, with “Post-Emergence” for “Pre-Emergence”

[6] = tested on: Echinochloa crus-galli (ECHCG); experiment: as above; details: 312 h, rate 250 g/ha, evaluated after 13 days, scale 0-100, read-out: Post-emergence activity ECHCG (100=total damage to plant; 0=no damage to plant)
Method: as §1, with “Post-Emergence” for “Pre-Emergence”

[7] = tested on: Alopecurus myosuroides (ALOMY); experiment: as above; details: 312 h, rate 250 g/ha, evaluated after 13 days, scale 0-100, read-out: Post-emergence activity ALOMY (100=total damage to plant; 0=no damage to plant)
Method: as §1, with “Post-Emergence” for “Pre-Emergence”

Avena fatua (AVEFA) [8] = experiment: as above; details: 312 h, rate 250 g/ha, evaluated after 13 days, scale 0-100, read-out: Post-emergence activity AVEFA (100=total damage to plant; 0=no damage to plant)
Method: as §1, with “Post-Emergence” for “Pre-Emergence”

Compound | pest or weed control at 250 g/ha (Lolium perenne (LOLPE) [1]) [%] | pest or weed control at 250 g/ha [2] [%] | pest or weed control at 250 g/ha [3] [%] | pest or weed control at 250 g/ha (Avena fatua (AVEFA) [4]) [%] | pest or weed control at 250 g/ha (Lolium perenne (LOLPE) [5]) [%] | pest or weed control at 250 g/ha [6] [%] | pest or weed control at 250 g/ha [7] [%] | pest or weed control at 250 g/ha (Avena fatua (AVEFA) [8]) [%]
CCc1ccc(-c2ccc(Cl)c(Cl)c2)cc1C1=C(O)CCCC1=O [Compound T49] | 100 | 100 | 20 | 60 | 90 | 100 | 50 | 80
CCc1ccc(-c2ccc(Cl)c(Cl)c2Cl)cc1C1=C(O)CCCC1=O [Compound T54] | 20 | 70 | 0 | 0 | 60 | 80 | 20 | 0
CCc1ccc(-c2c(F)cc(Cl)cc2F)cc1C1=C(O)CCCC1=O [Compound T58] | 70 | 90 | 20 | 0 | 90 | 100 | 60 | 90
CCc1ccc(-c2ccc(Cl)cc2Cl)cc1C1=C(O)CCCC1=O [Compound T44] | 80 | 90 | 0 | 0 | 80 | 100 | 30 | 0
CCc1ccc(-c2ccc(Cl)cc2Cl)cc1C1=C(O)C(C)(C)CC(C)(C)C1=O [Compound T61] | 70 | 90 | 20 | 50 | 40 | 90 | 10 | 30
CCc1ccc(-c2c(F)cc(Cl)cc2F)cc1C1=C(O)C(C)(C)CCC1=O [Compound T13] | 50 | 40 | 0 | 0 | 50 | 100 | 0 | 0
CCc1ccc(-c2ccc(Cl)c(OC)c2)cc1C1=C(O)CC(C)(C)CC1=O [Compound T23] | 70 | 90 | 40 | 20 | 100 | 100 | 90 | 60
CCc1ccc(-c2ccc(Cl)s2)cc1C1=C(O)CC(C)(C)CC1=O [Compound T26] | 100 | 100 | 20 | 0 | 70 | 80 | 30 | 0
CCc1ccc(-c2ccc(Cl)c(C(F)(F)F)c2)cc1C1=C(O)CC(C)(C)CC1=O [Compound T25] | 70 | 80 | 30 | 20 | 100 | 100 | 80 | 80
CCc1ccc(-c2ccc(Cl)c(F)c2)cc1C1=C(O)CC(C)(C)CC1=O [Compound T33] | 90 | 90 | 0 | 20 | 100 | 100 | 100 | 80
CCc1ccc(-c2ccc(C(F)(F)F)cc2)cc1C1=C(O)CCCC1=O [Compound T59] | 100 | 100 | 100 | 100 | 100 | 100 | 100 | 100
CCc1ccc(-c2ccc(Cl)c(F)c2Cl)cc1C1C(=O)C(C)(C)CC(C)(C)C1=O [Compound T63] | 90 | 90 | 20 | 50 | 80 | 80 | 20 | 40
CCc1ccc(-c2ccc(Cl)c(F)c2)cc1C1=C(O)C(C)(C)CC(C)(C)C1=O [Compound T64] | 60 | 70 | 30 | 10 | 80 | 100 | 50 | 80
CCc1ccc(-c2ccc(Cl)nc2)cc1C1=C(O)CCCC1=O [Compound T42] | 0 | 20 | 0 | 0 | 50 | 100 | 50 | 20
CCc1ccc(-c2ccc(Cl)c(Cl)c2)cc1C1=C(O)CC(C)(C)CC1=O [Compound T22] | 80 | 90 | 20 | 40 | 100 | 100 | 70 | 40
CCc1ccc(-c2ccc(Cl)nc2Cl)cc1C1=C(O)C(C)(C)CCC1=O [Compound T12] | 0 | 0 | 0 | 0 | 0 | 90 | 0 | 0
CCc1ccc(-c2ccc(Cl)c(C(F)(F)F)c2)cc1C1=C(O)CCCC1=O [Compound T41] | 100 | 100 | 20 | 30 | 100 | 90 | 60 | 50
CCc1ccc(-c2ccc(Cl)c(Cl)c2F)cc1C1=C(O)C(C)(C)CCC1=O [Compound T17] | 0 | 80 | 0 | 0 | 40 | 90 | 0 | 0
CCc1ccc(-c2ccc(Cl)c(F)c2F)cc1C1=C(O)C(C)(C)CCC1=O [Compound T16] | 80 | 90 | 30 | 20 | 90 | 100 | 50 | 90
